Experimental data from patent publication US6479435B1, “Diaryl ethers and processes for their preparation and herbicidal and desiccant compositions containing them” (ISK Americas Incorporated, priority 1997, dated 2002).

Legend:
Format in all cases: in vivo
[1] = test system: Johnsongrass (Sorghum halepense, SORHA); experiment: Pre-emerge greenhouse herbicide test, phytotoxicity rating; details: 14 days after application, rating scale 0-100
From the text: (§1) A standard greenhouse herbicide activity screening system was used to evaluate the herbicidal efficacy and crop safety of these test compounds. Six broadleaf weed species including redroot pigweed (Amaranthus retroflexus, AMARE), velvetleaf (Abutilon theophrasti, ABUTH), sicklepod (Cassia obtusifolia, CASOB), ivyleaf morningglory (Ipomoea hederacea, IPOHE), lambsquarters (Chenopodium album, CHEAL) and common ragweed (Ambrosia artemisiifolia L., AMBEL) were used as test species. Four grass weed species including green foxtail (Setaria viridis, SETVI), barnyardgrass (Echinochloa crusgalli, ECHCG), Johnsongrass (Sorghum halepense, SORHA), and large crabgrass (Digitaria sanguinalis, DIGSA) were also used. In addition, three crop species, field corn (Zea mays L., var. Dekalb 535, CORN), soybean (Glycine max L., var. Pella 86, SOY), and upland rice (Oryza sp., var.Tebonnet, RICE) were included.
(§2) All plants were grown in 10 cm square plastic pots which were filled with a sandy loam soil mix. For preemerge tests, seeds were planted one day prior to application of the test compounds. Immediately after application, test units of the pre-emerge applications were watered at the soil surface to incorporate the test materials. Subsequently, these test units were bottom-watered.
(§3) All test compounds were dissolved in acetone and applied to the test units in a volume of 187 l/ha. Test materials were applied at rates ranging from 125 g ai/ha to 1000 g ai/ha using a track sprayer equipped with a TJ8001E even flow flat fan spray nozzle. Plants were arranged on a shelf so that the top of the canopy (post-emerge) or top of the soil surface (pre-emerge) was 40-45 cm below the nozzle. Pressurized air was used to force the test solution through the nozzle as it was mechanically advanced (via electrically driven chain drive) over the top of all test plants/pots. This application simulates a typical commercial field herbicide application.
(§4) At 14 days after application of the test materials, phytotoxicity ratings were recorded. A rating scale of 0-100 was used as previously described in Research Methods in Weed Science, 2nd edition, B. Truelove, Ed., Southern Weed Science Society, Auburn University, Auburn, Ala., 1977. Briefly, “0” corresponds to no damage and “100” corresponds to complete death of all plants in the test unit. This scale was used both to determine efficacy against weed species and damage to crop species. Herbicide activity data for various compounds of this invention, which are shown by compound number in Tables 1-9, are shown in Tables 13 and 14.

[2] = test system: barnyardgrass (Echinochloa crusgalli, ECHCG); experiment: as above; details: 14 days after application, rating scale 0-100
From the text: as §1, §2, §3, §4

[3] = test system: green foxtail (Setaria viridis, SETVI); experiment: as above; details: 14 days after application, rating scale 0-100
From the text: as §1, §2, §3, §4

[4] = test system: ivyleaf morningglory (Ipomoea hederacea, IPOHE); experiment: as above; details: 14 days after application, rating scale 0-100
From the text: as §1, §2, §3, §4

[5] = test system: lambsquarters (Chenopodium album, CHEAL); experiment: as above; details: 14 days after application, rating scale 0-100
From the text: as §1, §2, §3, §4

[6] = test system: large crabgrass (Digitaria sanguinalis, DIGSA); experiment: as above; details: 14 days after application, rating scale 0-100
From the text: as §1, §2, §3, §4

[7] = test system: redroot pigweed (Amaranthus retroflexus, AMARE); experiment: as above; details: 14 days after application, rating scale 0-100
From the text: as §1, §2, §3, §4

[8] = test system: sicklepod (Cassia obtusifolia, CASOB); experiment: as above; details: 14 days after application, rating scale 0-100
From the text: as §1, §2, §3, §4

[9] = test system: velvetleaf (Abutilon theophrasti, ABUTH); experiment: as above; details: 14 days after application, rating scale 0-100
From the text: as §1, §2, §3, §4

[10] = test system: field corn (Zea mays L., var. Dekalb 535, CORN); experiment: Pre-emerge greenhouse test, crop damage rating; details: 14 days after application, rating scale 0-100
From the text: as §1, §2, §3, §4

[11] = test system: upland rice (Oryza sp., var.Tebonnet, RICE); experiment: Pre-emerge greenhouse test, crop damage rating; details: 14 days after application, rating scale 0-100
From the text: as §1, §2, §3, §4

[12] = test system: soybean (Glycine max L., var. Pella 86, SOY); experiment: Pre-emerge greenhouse test, crop damage rating; parameters: key to SOY crop damage rating: 0 = no damage, 100 = complete death of all plants; details: 14 days after application, rating scale 0-100
From the text: as §1, §2, §3, §4

[13] = test system: Johnsongrass (Sorghum halepense, SORHA); experiment: Post-emerge greenhouse herbicide test, phytotoxicity rating; details: 14 days after application, scale 0-100
From the text: as §1, §3
(§5) In the post-emerge test, a commercial non-ionic surfactant was also included (0.25% v/v) to enhance wetting of the leaf surfaces Qf target plants at rates ranging from 63 g ai/ha to 1000 g ai/ha. For post-emerge tests, seeds were planted 8-21 days prior to the test to allow emergence and good foliage development prior to application of the test substances. At the time of the post-emerge application, plants of all species were usually at the 2-3 leaf stage of development. Post-emerge test units were always bottom-watered.
as §4

[14] = test system: barnyardgrass (Echinochloa crusgalli, ECHCG); experiment: as above; details: 14 days after application, scale 0-100
From the text: as §1, §3, §5, §4

[15] = test system: green foxtail (Setaria viridis, SETVI); experiment: as above; details: 14 days after application, scale 0-100
From the text: as §1, §3, §5, §4

[16] = test system: ivyleaf morningglory (Ipomoea hederacea, IPOHE); experiment: as above; details: 14 days after application, scale 0-100
From the text: as §1, §3, §5, §4

[17] = test system: lambsquarters (Chenopodium album, CHEAL); experiment: as above; details: 14 days after application, scale 0-100
From the text: as §1, §3, §5, §4

[18] = test system: large crabgrass (Digitaria sanguinalis, DIGSA); experiment: as above; details: 14 days after application, scale 0-100
From the text: as §1, §3, §5, §4

[19] = test system: redroot pigweed (Amaranthus retroflexus, AMARE); experiment: as above; details: 14 days after application, scale 0-100
From the text: as §1, §3, §5, §4

[20] = test system: sicklepod (Cassia obtusifolia, CASOB); experiment: as above; details: 14 days after application, scale 0-100
From the text: as §1, §3, §5, §4

[21] = test system: velvetleaf (Abutilon theophrasti, ABUTH); experiment: as above; details: 14 days after application, scale 0-100
From the text: as §1, §3, §5, §4

[22] = test system: field corn (Zea mays L., var. Dekalb 535, CORN); experiment: Post-emerge greenhouse test, crop damage rating; details: 14 days after application, scale 0-100
From the text: as §1, §3, §5, §4

[23] = test system: upland rice (Oryza sp., var.Tebonnet, RICE); experiment: Post-emerge greenhouse test, crop damage rating; details: 14 days after application, scale 0-100
From the text: as §1, §3, §5, §4

[24] = test system: soybean (Glycine max L., var. Pella 86, SOY); experiment: Post-emerge greenhouse test, crop damage rating; parameters: key to crop damage rating SOY: 0-100 scale: 0 = no damage, 100 = complete death of all plants; details: 14 days after application, scale 0-100
From the text: as §1, §3, §5, §4

For `Nn1c(C(F)(F)F)cc(=O)n(-c2cc(Oc3cccc(C(F)(F)F)c3)c(Cl)cc2F)c1=O` [Compound 9-25, 1-Amino-3-[4-chloro-2-fluoro-5-(3-trifluoromethylphenoxy)phenyl]-6-trifluoro-methyl-1,2,3,4-tetrahydropyrimidine-2,4-dione], the SORHA phytotoxicity rating ([1]; Rate 125 g al/ha) was 80, the SORHA phytotoxicity rating ([1]; Rate 500 g al/ha) was 100 and the ECHCG phytotoxicity rating ([2]; Rate 125 g al/ha) was 70. For the same compound, the ECHCG phytotoxicity rating ([2]; Rate 500 g al/ha) was 95, the SETVI phytotoxicity rating ([3]; Rate 125 g al/ha) was 100 and the SETVI phytotoxicity rating ([3]; Rate 500 g al/ha) was 100. For the same compound, the IPOHE phytotoxicity rating ([4]; Rate 125 g al/ha) was 70, the IPOHE phytotoxicity rating ([4]; Rate 500 g al/ha) was 90 and the CHEAL phytotoxicity rating ([5]; Rate 125 g al/ha) was 100. The CHEAL phytotoxicity rating ([5]; Rate 500 g al/ha) was 100, the DIGSA phytotoxicity rating ([6]; Rate 125 g al/ha) was 80 and the DIGSA phytotoxicity rating ([6]; Rate 500 g al/ha) was 100. The AMARE phytotoxicity rating ([7]; Rate 125 g al/ha) was 100, the AMARE phytotoxicity rating ([7]; Rate 500 g al/ha) was 100 and the CASOB phytotoxicity rating ([8]; Rate 125 g al/ha) was 30. The CASOB phytotoxicity rating ([8]; Rate 500 g al/ha) was 80, the ABUTH phytotoxicity rating ([9]; Rate 125 g al/ha) was 100 and the ABUTH phytotoxicity rating ([9]; Rate 500 g al/ha) was 100. The “CORN crop damage rating” value ([10]; Rate 125 g al/ha) was 20, the “CORN crop damage rating” value ([10]; Rate 500 g al/ha) was 40 and the “RICE crop damage rating” value ([11]; Rate 125 g al/ha) was 40. The “RICE crop damage rating” value ([11]; Rate 500 g al/ha) was 90, the “SOY crop damage rating” value ([12]; Rate 125 g al/ha) was 50 and the “SOY crop damage rating” value ([12]; Rate 500 g al/ha) was 80. The “phytotoxicity rating SORHA” value ([13]; rate 63 g ai/ha) was 10, the “phytotoxicity rating SORHA” value ([13]; rate 500 g ai/ha) was 70 and the “phytotoxicity rating ECHCG” value ([14]; rate 63 g ai/ha) was 10. For the same compound, the “phytotoxicity rating ECHCG” value ([14]; rate 500 g ai/ha) was 0, the “phytotoxicity rating SETVI” value ([15]; rate 63 g ai/ha) was 30 and the “phytotoxicity rating SETVI” value ([15]; rate 500 g ai/ha) was 80. The “phytotoxicity rating IPOHE” value ([16]; rate 63 g ai/ha) was 100, the “phytotoxicity rating IPOHE” value ([16]; rate 500 g ai/ha) was 100 and the “phytotoxicity rating CHEAL” value ([17]; rate 63 g ai/ha) was 100. The “phytotoxicity rating CHEAL” value ([17]; rate 500 g ai/ha) was 100, the “phytotoxicity rating DIGSA” value ([18]; rate 63 g ai/ha) was 0 and the “phytotoxicity rating DIGSA” value ([18]; rate 500 g ai/ha) was 60. The “phytotoxicity rating AMARE” value ([19]; rate 63 g ai/ha) was 100, the “phytotoxicity rating AMARE” value ([19]; rate 500 g ai/ha) was 100 and the “phytotoxicity rating CASOB” value ([20]; rate 63 g ai/ha) was 50. For the same compound, the “phytotoxicity rating CASOB” value ([20]; rate 500 g ai/ha) was 100, the “phytotoxicity rating ABUTH” value ([21]; rate 63 g ai/ha) was 95 and the “phytotoxicity rating ABUTH” value ([21]; rate 500 g ai/ha) was 100. The “crop damage rating CORN” value ([22]; rate 63 g ai/ha) was 15, the “crop damage rating CORN” value ([22]; rate 500 g ai/ha) was 35 and the “crop damage rating RICE” value ([23]; rate 63 g ai/ha) was 5. The “crop damage rating RICE” value ([23]; rate 500 g ai/ha) was 35, the “crop damage rating SOY” value ([24]; rate 63 g ai/ha) was 60 and the “crop damage rating SOY” value ([24]; rate 500 g ai/ha) was 80.
